Measured values from US20140147853A1, “Method for Predicting Respiratory Toxicity of Compounds” (priority 2009, published 2014).
“Also recorded” adds a separate entry of the source. Read-outs that look alike come from different tables or passages of the source.

Legend:
[1] = tested on: IL-1α; assay: qRT-PCR gene expression in EPIAIRWAY cells; format: cell-based, human; details: 24 hours; 1, 10, 30, 100 dosed
Protocol: (§1) The dosing regimen used here brackets this dose. […] Again, the dosing regimen used brackets this concentration. […] This calculates to 750 ng/cm^2.

[2] = tested on: IL-6; assay: qRT-PCR gene expression in EPIAIRWAY cells; format: cell-based, human; details: for IL-6 mRNA expression vs control: 24 hours, 1, 10, 30, 100 dosed
Protocol: as §1

[3] = tested on: IL-8; assay: qRT-PCR gene expression in EPIAIRWAY cells; format: cell-based, human; details: 24 hours
Protocol: as §1

[4] = tested on: Bcl2; assay: qRT-PCR gene expression in EPIAIRWAY cells; format: cell-based, human; details: 24 hours
Protocol: as §1

[5] = tested on: TNF-α; assay: qRT-PCR gene expression in EPIAIRWAY cells; format: cell-based, human; details: for TNF-α mRNA expression vs control: 1, 10, 30, 100 dosed
Protocol: as §1

[6] = tested on: CYP1A1
Protocol: The three-dimensional in vitro human [sequence] system may be purchased from MatTek (Ashland, Mass.). Cultures are maintained with supplied culture media according to the manufacturer's instructions. Briefly, [sequence] 96-well plates are allowed to equilibrate in 250 μL media for at least 18 hours overnight at 37° C. with 5% CO2 upon arrival. Media is changed every other day if cells are not used immediately after equilibration.
In the Examples described below, dosing solutions were prepared in DPBS (MatTek, Ashland, Mass.). The [sequence] cells were dosed with 100 μL of the following concentrations: 1, 10, 30 and 100 μM bleomycin, cadmium chloride, beryllium sulfate and doxorubicin; 1, 10, 30 and 100 μg/cm^2 silica; and 1, 10, 30 and 100 ng/mL LPS. […] The dosing regimen used here brackets this dose. […] Again, the dosing regimen used brackets this concentration. […] This calculates to 750 ng/cm^2. The concentrations and volumes dosed calculate to 483 ng/cm^2 (1 μM), 4.83 μg/cm^2 (10 μM), 14.5 μg/cm^2 (30 μM) and 48.3 μg/cm^2 (100 μM) doxorubicin, bracketing the safe range. MIN-U-SIL 5 silica, with an average surface area of 5.1 cm^2/g gives the following concentrations dosed: 0.051 cm^2/cm^2 (1 μg/cm^2), 0.51 cm^2/cm^2 (10 μg/cm^2), 1.53 cm^2/cm^2 (30 μg/cm^2) and 5.1 cm^2/cm^2 (100 μg/cm^2). […] In order to analyze the acute response of [sequence] cells to LPS, cells are exposed to LPS concentrations ranging from 1 ng/mL to 100 ng/mL. Following the exposure period, the dosing solutions are removed and cells are analyzed for changes in structure, cell viability, oxidative stress and gene expression.
Total RNA was isolated from [sequence] human respiratory cells by the TRIZOL (Invitrogen, Carlsbad, Calif.) method (Chomczynski and Sacchi, 1987)with modifications. Briefly, cells were punched out using a biopsy punch (Miltex, York, Pa.) and immediately placed in TRIZOL. The samples were then frozen at −80° C. until needed. After thawing, the isolation procedure followed the manufacturer's instructions.
Induction of target gene mRNA was determined as follows, by standard one-step qRT-PCR techniques using multiple internal control genes for normalization with a few modifications (Vandesompele et al, 2002). RT-PCR was performed using the Quantitect® SYBR Green RT-PCR kit (Qiagen, Valencia, Calif.) according to the manufacturer's instructions for 20 μL reactions. All primers were [sequence] Primer Assay (Qiagen, Valencia, Calif.) containing forward and reverse primers in the same tube (see Table 1, below). Briefly, 50 ng of RNA in 20 μL reactions are set up in 384-well RT-PCR plates (Roche Diagnostics Corp., Indianapolis, Ind.) and placed in a [sequence] 480 real time PCR machine (Roche Diagnostics Corp., Indianapolis, Ind.). One-step PCR was set as follows; reverse transcription was 1 cycle of 50° C. for 30 minutes followed by 95° C. for 15 minutes. Amplification was set for 45 cycles of 94° C. for 15 seconds, 55° C. for 20 seconds and 72° C. for 20 seconds. Melting curve was generated by 1 cycle of 95° C. for 5 seconds followed by 65° C. for 1 minute. Data were analyzed using the [sequence] 480 software version 1.5.0.39 (Roche Diagnostics Corp., Indianapolis, Ind.). The expression levels of multiple housekeeping genes were determined and an average fold induction over vehicle was elucidated for each housekeeping gene.

[7] = tested on: EPIAIRWAY cells; assay: Cell viability by MTT reduction in EPIAIRWAY 3-D model; format: cell-based, human
Protocol: as §1
Cell viability was determined by measuring the reduction of 3-[4,5-dimethylthiazol-2-yl]2,5-diphenyltetrazolium bromide (MTT). The cells in each well were evaluated for their ability to reduce soluble-MTT (yellow) to formazan-MTT (purple). An MTT stock solution was prepared […] complete medium just prior to use and warmed to 37° C. in a water bath. Once the media and dosing solution was removed from all wells, MTT solution was added to the basal side of each well and the plate was allowed to incubate at 37° C. for 3-4 hr. Media was removed and the purple formazan product was extracted using anhydrous isopropanol applied to both the apical and basal side of the cells. Sample absorbance was read at 570 nm and reference absorbance at 650 nm with a Packard Fusion or equivalent plate reader.

[8] = tested on: EPIAIRWAY cells; assay: Intracellular glutathione (GSH) levels, oxidative stress; format: cell-based, human
Protocol: as §1
Intracellular glutathione levels were determined essentially as described by Griffith (1980) with modifications. At the end of the exposure period, the medium was removed from the cells and metaphosphoric acid (MPA) was added to each well. Plates were then shaken for 5 min at room temperature and stored at −20° C. until needed.

[9] = tested on: fetal human lung cells and human lung fibroblasts; details: Sakaguchi 1984, Lehnert 2001; cited from earlier work
[10] = tested on: human fetal lung fibroblasts; details: Yang et al., 1997; cited from earlier work
[11] = tested on: human epithelial cells; details: Han et al., 2007; cited from earlier work
[12] = tested on: EPIAIRWAY cells; assay: Histology of EPIAIRWAY 3-D model (structural integrity); format: cell-based, human
Protocol: as §1
Cells were isolated using a 3 mm biopsy punch (Miltex, York, PA) and immediately placed in […] 10% Neutral Buffered Formalin (Fisher Diagnostics, Middletown, Va.). Histology was performed essentially as described by Sheehan and Hrapchak (1980). Briefly, cells were processed and embedded into paraffin wax blocks. The blocks were sectioned at 3 μm, adhered to slides and stained with hematoxylin and eosin. Photos were taken at 10× magnification.

[13] = tested on: Bax; assay: qRT-PCR gene expression in EPIAIRWAY cells; format: cell-based, human; details: 24 hours
Protocol: as §1

[14] = Literature: phase 1 study of inhaled doxorubicin; format: in vivo, human; details: calculated from 7.5 mg/m^2
Protocol: as §1

[15] = every 3 weeks, phase 1 study (Otterson 2007); cited from earlier work
[16] = tested on: human lung epithelia and fibroblasts; details: in vitro (Sato 1999, Takamizawa 1999); ~7.1 μM; cited from earlier work
[17] = tested on: EPIAIRWAY cells; assay: LDH release into the media by EPIAIRWAY cells; format: cell-based, human; details: 100 μM
Text: The primary shortcoming of this model system appears to be that the MTT results to not compare well with histology. This may be due to the fact that the basal cell layers have the highest metabolic activity given that they are still rapidly dividing. […] Fortunately, there appears to be a much more concise method to assess cytotoxicity in this model system. Lactate dehydrogenase is a cytosolic enzyme commonly used as a marker for cell membrane permeability, and therefore, cytotoxicity (Davies et al., 1973).

[18] = tested on: TGF-β; assay: qRT-PCR gene expression in EPIAIRWAY cells; format: cell-based, human; details: 24 hours of exposure
Protocol: as §1

[19] = 24 hours, 1, 10, 30, 100 dosed, >2-fold significant
[20] = any dose (1, 10, 30, 100), 24 and 72 hours
[21] = dose-dependent, 1-100 μM, maximum reached

O=S(=O)([O-])[O-].[Be+2] [Beryllium sulfate, beryllium sulfate]
IL-1α mRNA expression vs control [1]: substantially induced | IL-6 mRNA expression vs control [2]: substantially induced | IL-8 mRNA expression vs control ([3]; 1 and 30 μM): mildly induced | Bcl2 mRNA expression vs control ([4]; 100 μM): mildly induced | TNFα mRNA expression vs control ([5]; 100 μM, 24 hours): mildly induced | CYP1A1 mRNA expression vs control [6, 19]: substantially induced | Effect on cell viability (MTT) [7, 20]: did not reduce cell viability | Intracellular GSH ([8]; 1 μM, 72 hours): 65 % of control | Effect on intracellular GSH ([8]; 10 μM, 72 hours): did not have an effect | Intracellular GSH ([8]; 30 μM, 72 hours): 83 % of control | Intracellular GSH ([8]; 100 μM, 72 hours): 71 % of control | Effect on intracellular GSH ([8]; 24 hours, 1, 10, 30 and 100 μM): no effect

[Be+2] [Beryllium]
Lowest cytotoxic concentration [9]: ≥ 5.5 µM

[Cl][Cd][Cl] [Cadmium chloride, cadmium chloride]
Concentration inducing significant LDH release [10]: 8.75 µM | Concentration exhibiting cytotoxicity [11]: 50 µM | Histology: cell structure ([12]; 10 μM, 24 hour exposure): cell loss | Histology: cell structure ([12]; 100 μM, 24 hour exposure): much more noticeable a breakdown of cellular structure | Histology: cell structure ([12]; 24 hours): significant structural breakdown and cell loss | IL-6 mRNA expression vs control [2]: substantially induced | Bax mRNA expression vs control ([13]; 100 μM): mildly induced | Bcl2 mRNA expression vs control ([4]; 100 μM): mildly induced | TNF-α mRNA expression vs control ([5]; 24 hours): mild induction | CYP1A1 mRNA expression vs control [6, 19]: substantially induced | Cell viability (MTT) ([7]; 100 μM, 24 hours): 56 % of control | Effect on intracellular GSH ([8]; 24 hours, 1, 10, 30 and 100 μM): no reduction

COc1cccc2c1C(=O)c1c(O)c3c(c(O)c1C2=O)C[C@@](O)(C(=O)CO)C[C@@H]3O[C@H]1C[C@H](N)[C@H](O)[C@H](C)O1 [Doxorubicin]
Safe inhalation dose recalculated per area [14]: 750 ng/cm^2 | Dose identified as safe for inhalation [15]: up to 7.5 mg/m^2 | Histology: cell structure ([12]; 24 hours): significant structural breakdown and loss of cells; also recorded: significant structural breakdown and cell loss | IL-1α mRNA expression vs control [1]: substantially induced | IL-6 mRNA expression vs control [2]: substantially induced | IL-8 mRNA expression vs control ([3]; only 1 μM): mildly induced | Ratio of Bax:Bcl2 expression [13]: decreased | Bcl2 mRNA expression vs control ([4]; 1, 10, 30 and 100 μM): substantially induced | TNF-α mRNA expression vs control ([5]; 24 hours): substantially induced | CYP1A1 mRNA expression vs control [6]: substantially induced | Effect on cell viability (MTT) ([7]; 1 μM, either time point (24, 72 hours)): no effect on cell viability | Cell viability (MTT) ([7]; 100 μM, 72 hours): 57 % of control | Effect on cell viability (MTT) ([7]; 24 hours, 1, 10, 30 and 100 μM): not observed | Intracellular GSH ([8]; 100 μM, 72 hours): 10 % of control | Intracellular GSH ([8]; 10, 30 and 100 μM, 24 hours): 80 % of control

Bleomycin
Concentration inducing cytokine release while relatively non-toxic [16]: 10 µg/mL | LDH release into the media, increase compared to control ([17]; 24 hours): 292% | LDH release into the media, increase compared to control ([17]; 72 hours): 588% | Histology: cell structure ([12]; 24 hours): significant structural breakdown and cell loss; also recorded: significant structural breakdown and loss of cells | IL-1α mRNA expression vs control [1]: induced in a dose-dependent manner | TGF-β mRNA expression vs control [18]: induction was not seen | IL-6 mRNA increase over control tissues [2, 21]: > 20 fold | IL-8 mRNA expression vs control ([3]; 1, 10, 30, 100 dosed): induced in a dose-dependent manner | Ratio of Bax:Bcl2 expression [13]: decreased | Bcl2 mRNA expression vs control ([4]; 1, 10, 30 and 100 μM): induced | TNF-α mRNA increase over control tissues [5, 21]: > 20 fold | CYP1A1 mRNA expression vs control [6, 19]: greatly induced | Effect on cell viability (MTT) ([7]; 24 hours, 1, 10, 30 and 100 μM): no effect on viability | Cell viability (MTT) ([7]; 72 hour exposure, 1, 10, 30 and 100 μM dosed): 90 % of control | Intracellular GSH ([8]; 1 μM, 72 hours): 71 % of control | Total cellular GSH ([8]; 100 μM, 24 hours): 75 % of control

Triton X-100
Histology: killing of basal cell layers ([12]; 0.3%, 24 hours): unable to kill these bottom layers of cells

lipopolysaccharide [LPS]
IL-1α mRNA expression vs control [1]: substantial, dose-independant induction | IL-6 mRNA expression vs control [2]: substantial, dose-independant induction | IL-8 mRNA expression vs control ([3]; 1, 10, 30, 100 dosed): mild induction | Bcl2 mRNA expression vs control ([4]; only 30 and 100 ng/mL): induced | TNF-α mRNA expression vs control ([5]; 24 hours): substantial, dose-independant induction | CYP1A1 mRNA expression vs control [6, 19]: dose-dependant increase | Effect on cell viability (MTT) [7, 20]: did not reduce cell viability | Intracellular GSH ([8]; 100 ng/mL, 24 hours): 65 % of control
